One experiment addresses T1, PDGF-Ra (Homo sapiens, UniProt P16234).
T1 construct: host or cells: G-292 human osteosarcoma cells
Put plainly: Inhibitory activity against PDGF-Ra phosphorylation by PDGF-AA stimulation using G292. It is filed as cell-based. Conditions: > means inhibition at indicated concentration not more than 50%, < and << not less than 50%; read-out: PDGF (E) IC50. Summed up: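 Read-out: A450 from a sandwich ELISA (PY-20 capture, anti-PDGF-Ra detection, peroxidase colour) of lysates from G-292 cells given compound for 1 hr at 37 °C before a 5 min challenge with PDGF-AA at 50 ng/ml.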

The target of the next experiment is T2, c-kit (Homo sapiens, UniProt P10721).
T2 construct: MO7e (human megakaryocytic leukemia cell line) which had been arrested for 20 hr; endogenous in cells; host or cells: MO7e human megakaryocytic leukemia cell line
T2 sequence (P10721 26-976): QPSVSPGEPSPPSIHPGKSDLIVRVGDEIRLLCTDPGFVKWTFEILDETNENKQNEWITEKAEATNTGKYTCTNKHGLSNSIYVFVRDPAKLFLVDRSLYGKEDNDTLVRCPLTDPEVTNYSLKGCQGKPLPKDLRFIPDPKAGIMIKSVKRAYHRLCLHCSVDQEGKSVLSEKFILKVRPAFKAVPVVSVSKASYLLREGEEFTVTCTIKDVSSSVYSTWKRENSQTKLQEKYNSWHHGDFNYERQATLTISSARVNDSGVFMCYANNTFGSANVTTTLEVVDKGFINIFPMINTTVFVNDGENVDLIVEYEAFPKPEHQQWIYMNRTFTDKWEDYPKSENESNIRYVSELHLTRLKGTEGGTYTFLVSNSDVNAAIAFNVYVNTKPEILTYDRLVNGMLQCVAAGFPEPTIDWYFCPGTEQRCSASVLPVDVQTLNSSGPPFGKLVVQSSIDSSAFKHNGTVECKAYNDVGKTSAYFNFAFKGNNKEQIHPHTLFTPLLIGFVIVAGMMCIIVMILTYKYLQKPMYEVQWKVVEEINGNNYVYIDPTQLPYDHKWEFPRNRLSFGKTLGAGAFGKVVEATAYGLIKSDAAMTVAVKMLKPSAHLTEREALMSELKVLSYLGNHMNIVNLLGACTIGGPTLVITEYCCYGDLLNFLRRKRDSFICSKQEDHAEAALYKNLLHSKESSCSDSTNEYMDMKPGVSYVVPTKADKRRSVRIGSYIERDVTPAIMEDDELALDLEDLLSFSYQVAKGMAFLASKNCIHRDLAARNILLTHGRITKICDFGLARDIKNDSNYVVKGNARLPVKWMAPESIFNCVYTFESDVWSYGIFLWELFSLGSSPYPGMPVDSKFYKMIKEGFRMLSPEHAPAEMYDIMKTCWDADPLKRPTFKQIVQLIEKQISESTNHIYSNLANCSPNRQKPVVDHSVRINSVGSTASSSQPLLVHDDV
Briefly: Inhibitory activity against c-kit autophosphorylation (MO7e cells, h-SCF). The format is cell-based. Conditions: for IC50: MO7e cells, 50 ng/ml h-SCF, read-out: c-kit IC50; for inhibition at 1 µM: Mo7e, figure within parentheses in −( ) or >1000( ), at 1000 nM. An outline of the steps: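 In this cellular autophosphorylation assay, compound-treated MO7e cells (1 hr) were challenged with human stem cell factor at 50 ng/ml for 5 min; detection relied on PY-20 capture and anti-c-kit/HRP immunodetection at 450 nm.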

Among the data in patent US7135466B2 (Kirin Beer Kabushiki Kaisha, priority 1999, dated 2006) are IC50 and inhibition values, retold here.

Each structure is given as a SMILES string.

T1 sequence (P16234 24-1089): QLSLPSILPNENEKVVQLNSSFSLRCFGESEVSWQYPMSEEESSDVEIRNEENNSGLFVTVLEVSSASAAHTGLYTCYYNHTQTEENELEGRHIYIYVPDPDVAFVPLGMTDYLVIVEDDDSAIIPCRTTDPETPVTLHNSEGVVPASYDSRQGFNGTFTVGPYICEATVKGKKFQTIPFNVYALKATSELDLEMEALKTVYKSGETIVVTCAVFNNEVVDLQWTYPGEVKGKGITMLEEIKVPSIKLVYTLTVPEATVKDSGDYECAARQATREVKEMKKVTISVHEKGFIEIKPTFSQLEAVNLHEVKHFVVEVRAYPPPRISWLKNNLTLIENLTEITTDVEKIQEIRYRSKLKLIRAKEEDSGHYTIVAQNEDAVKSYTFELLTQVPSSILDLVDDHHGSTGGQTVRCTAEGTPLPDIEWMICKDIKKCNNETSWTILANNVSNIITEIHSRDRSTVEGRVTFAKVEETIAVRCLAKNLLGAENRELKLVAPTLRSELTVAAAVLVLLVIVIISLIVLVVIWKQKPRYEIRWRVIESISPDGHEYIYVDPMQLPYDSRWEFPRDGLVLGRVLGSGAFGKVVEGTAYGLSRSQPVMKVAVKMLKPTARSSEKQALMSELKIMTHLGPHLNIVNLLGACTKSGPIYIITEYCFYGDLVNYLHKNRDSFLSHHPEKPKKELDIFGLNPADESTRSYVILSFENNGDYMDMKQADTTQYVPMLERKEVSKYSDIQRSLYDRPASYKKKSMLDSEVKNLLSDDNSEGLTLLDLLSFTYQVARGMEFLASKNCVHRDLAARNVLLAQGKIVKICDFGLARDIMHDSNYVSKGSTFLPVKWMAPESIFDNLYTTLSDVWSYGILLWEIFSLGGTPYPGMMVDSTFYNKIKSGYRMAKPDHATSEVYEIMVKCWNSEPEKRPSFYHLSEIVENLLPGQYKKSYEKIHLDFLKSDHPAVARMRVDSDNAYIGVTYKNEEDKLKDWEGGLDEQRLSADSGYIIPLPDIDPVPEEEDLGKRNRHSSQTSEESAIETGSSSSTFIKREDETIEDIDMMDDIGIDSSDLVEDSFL

Broadly, the IC50 is the concentration needed to halve the response being measured. `COc1ccc(CCC(=O)NC(=S)Nc2ccc(Oc3ncnc4cc(OC)c(OC)cc34)cc2)cc1OC` [Example 713, N-[3-(3,4-Dimethoxyphenyl)propanoyl]-N′-{4-[(6,7-dimethoxy-4-quinazolinyl)oxy]phenyl}thiourea]: the 50% inhibitory concentration (IC50) was found to be 67 nM on PDGF-Ra and 89 nM at c-kit.

Take `COc1cc2nccc(Oc3ccc(NC(=S)NC(=O)COc4ccccc4Cl)cc3Cl)c2cc1OC` [Example 714, N-{3-Chloro-4-[(6,7-dimethoxy-4-quinolyl)oxy]phenyl}-N′-[2-(2-chlorophenoxy)acetyl]thiourea]: the concentration for half-maximal inhibition (IC50) on PDGF-Ra was 16 nM; on c-kit, 248 nM.

By inhibition is commonly meant the drop in the measured response relative to a control, in per cent. As for `CCOc1ccc(C(=O)NC(=S)Nc2ccc(Oc3ncnc4cc(OC)c(OC)cc34)cc2)cc1` [Example 716, N-{4-[(6,7-Dimethoxy-4-quinazolinyl)oxy]phenyl}-N′-(4-ethoxybenzoyl)thiourea], the concentration for half-maximal inhibition (IC50) on PDGF-Ra was 11 nM. For the same compound, on c-kit, the inhibition at 1 µM came to 19%.

Turning to `COc1cc2ncnc(Oc3ccc(NC(=S)NC(=O)c4cc(C)oc4C)cc3)c2cc1OC` [Example 718, N-{4-[(6,7-Dimethoxy-4-quinazolinyl)oxy]phenyl}-N′-[(2,5-dimethyl-3-furyl)carbonyl]thiourea], on PDGF-Ra, the IC50 was less than 10 nM. At c-kit, the inhibition at 1 µM was 19%.

As to `CCCCC(=O)NC(=S)Nc1ccc(Oc2ccnc3cc(OC)c(OC)cc23)c(Cl)c1` [Example 719, N-{3-Chloro-4-[(6,7-dimethoxy-4-quinolyl)oxy]phenyl}-N′-pentanoylthiourea], the figures for the IC50 on PDGF-Ra and at c-kit were 14 nM and 431 nM, respectively.

Regarding `CCCCC(=O)NC(=S)Nc1ccc(Oc2ncnc3cc(OC)c(OC)cc23)cc1` [Example 720, N-{4-[(6,7-Dimethoxy-4-quinazolinyl)oxy]phenyl}-N′-pentanoylthiourea], the IC50 was found to be 42 nM at PDGF-Ra and 30 nM on c-kit.

On to `COc1cc2nccc(Oc3ccc(NC(=S)NC(=O)CCc4ccc(C)cc4)cc3)c2cc1OC` [Example 721, N-{4-[(6,7-Dimethoxy-4-quinolyl)oxy]phenyl}-N′-[3-(4-methylphenyl)propanoyl]thiourea], for which the 50% inhibitory concentration (IC50) at PDGF-Ra amounted to 36 nM. For the same compound, on c-kit, the inhibition at 1 µM was 20%.

As for `COc1cc2ncnc(Oc3ccc(NC(=S)NC(=O)CCc4ccc(C)cc4)cc3)c2cc1OC` [Example 722, N-{4-[(6,7-Dimethoxy-4-quinazolinyl)oxy]phenyl}-N′-[3-(4-methylphenyl)propanoyl]thiourea], the IC50 at PDGF-Ra is less than 10 nM; on c-kit, 85 nM.

For the compound `COc1cc2nccc(Oc3ccc(NC(=S)NC(=O)Cc4ccccc4Cl)cc3)c2cc1OC` [Example 723, N-[2-(2-Chlorophenyl)acetyl]-N′-{4-[(6,7-dimethoxy-4-quinolyl)oxy]phenyl}thiourea], the 50% inhibitory concentration (IC50) on PDGF-Ra was determined as 17 nM; at c-kit, 380 nM.

As to `COc1cc2ncnc(Oc3ccc(NC(=S)NC(=O)Cc4ccccc4Cl)cc3)c2cc1OC` [Example 724, N-[2-(2-Chlorophenyl)acetyl]-N′-{4-[(6,7-dimethoxy-4-quinazolinyl)oxy]phenyl}thiourea], the IC50 is less than 10 nM on PDGF-Ra and 116 nM at c-kit.

Regarding `COc1cc2nccc(Oc3ccc(NC(=S)NC(=O)CCCc4ccccc4)cc3)c2cc1OC` [Example 725, N-{4-[(6,7-Dimethoxy-4-quinolyl)oxy]phenyl}-N′-(4-phenylbutanoyl)thiourea], the IC50 on PDGF-Ra is less than 10 nM; at c-kit it was 413 nM.

Consider `COc1cc2nccc(Oc3ccc(NC(=S)NC(=O)CCCc4ccccc4)cc3Cl)c2cc1OC` [Example 726, N-{3-Chloro-4-[(6,7-dimethoxy-4-quinolyl)oxy]phenyl}-N′-(4-phenylbutanoyl)thiourea], for which the half-maximal inhibitory concentration (IC50) amounted to 37 nM at PDGF-Ra and 624 nM at c-kit.

Take `COc1cc2nccc(Oc3ccc(NC(=S)NC(=O)Cc4ccccc4F)cc3Cl)c2cc1OC` [Example 730, N-{3-Chloro-4-[(6,7-dimethoxy-4-quinolyl)oxy]phenyl}-N′-[2-(2-fluorophenyl)acetyl]thiourea]: the IC50 at PDGF-Ra came to 34 nM; on c-kit it was 634 nM.

`COc1cc2nccc(Oc3ccc(NC(=S)NC(=O)CCc4ccccc4C)cc3)c2cc1OC` [Example 731, N-{4-[(6,7-Dimethoxy-4-quinolyl)oxy]phenyl}-N′-[3-(2-methylphenyl)propanoyl]thiourea]: the IC50 on PDGF-Ra came to 17 nM; at c-kit, 259 nM.

Take `COc1ccccc1CC(=O)NC(=S)Nc1ccc(Oc2ccnc3cc(OC)c(OC)cc23)cc1` [Example 733, N-{4-[(6,7-Dimethoxy-4-quinolyl)oxy]phenyl}-N′-[2-(2-methoxyphenyl)acetyl]thiourea]: the IC50 on PDGF-Ra came to 29 nM; on c-kit, 186 nM.

With `COc1ccccc1CC(=O)NC(=S)Nc1ccc(Oc2ccnc3cc(OC)c(OC)cc23)c(Cl)c1` [Example 734, N-{3-Chloro-4-[(6,7-dimethoxy-4-quinolyl)oxy]phenyl}-N′-[2-(2-methoxyphenyl)acetyl]thiourea], the IC50 on PDGF-Ra was determined as 29 nM; on c-kit, 216 nM.

In the case of `COc1cc2nccc(Oc3ccc(NC(=S)NC(=O)COc4ccccc4)cc3)c2cc1OC` [Example 737, N-{4-[(6,7-Dimethoxy-4-quinolyl)oxy]phenyl}-N′-(2-phenoxyacetyl)thiourea], the IC50 was less than 10 nM on PDGF-Ra and 523 nM on c-kit.

For the compound `COc1cc2nccc(Oc3ccc(NC(=S)NC(=O)COc4ccccc4)cc3Cl)c2cc1OC` [Example 738, N-{3-Chloro-4-[(6,7-dimethoxy-4-quinolyl)oxy]phenyl}-N′-(2-phenoxyacetyl)thiourea], the values for the half-maximal inhibitory concentration (IC50) on PDGF-Ra and on c-kit were 11 nM and 269 nM, respectively.

In the case of `COc1cc2nccc(Oc3ccc(NC(=S)NC(=O)COc4ccccc4C)cc3)c2cc1OC` [Example 739, N-{4-[(6,7-Dimethoxy-4-quinolyl)oxy]phenyl}-N′-[2-(2-methylphenoxy)acetyl]thiourea], the 50% inhibitory concentration (IC50) is less than 10 nM on PDGF-Ra and 234 nM on c-kit.

Regarding `COc1cc2nccc(Oc3ccc(NC(=S)NC(=O)COc4ccccc4C)cc3Cl)c2cc1OC` [Example 740, N-{3-Chloro-4-[(6,7-dimethoxy-4-quinolyl)oxy]phenyl}-N′-[2-(2-methylphenoxy)acetyl]thiourea], the figures for the concentration for half-maximal inhibition (IC50) on PDGF-Ra and on c-kit were 23 nM and 335 nM, respectively.

`COc1cc2nccc(Oc3ccc(NC(=S)NC(=O)[C@H](C)c4ccccc4)cc3)c2cc1OC` [Example 743, N-{4-[(6,7-Dimethoxy-4-quinolyl)oxy]phenyl}-N′-[(2R)-2-phenylpropanoyl]thiourea]: the figures for the 50% inhibitory concentration (IC50) at PDGF-Ra and at c-kit were 10 nM and 548 nM, respectively.

In the case of `CCC(C(=O)NC(=S)Nc1ccc(Oc2ccnc3cc(OC)c(OC)cc23)cc1)c1ccccc1` (stereo not shown) [Example 747, N-{4-[(6,7-Dimethoxy-4-quinolyl)oxy]phenyl}-N′-(2-phenylbutanoyl)thiourea], the IC50 on PDGF-Ra was determined as 35 nM; at c-kit, 759 nM.

Take `COc1cc2nccc(Oc3ccc(NC(=S)NC(=O)C4(C)CC4(Cl)Cl)cc3)c2cc1OC` (stereo not shown) [Example 749, N-[(2,2-Dichloro-1-methylcyclopropyl)carbonyl]-N′-{4-[(6,7-dimethoxy-4-quinolyl)oxy]phenyl}thiourea]: the IC50 on PDGF-Ra came out at 12 nM. Moreover, at c-kit, the inhibition at 1 µM came out at 41%.
